Test results: patent US6831199B1, “Pyrimidine compounds and derivatives thereof” (G. D. Searle & Co., priority 1995, dated 2004)
Structures can show the parent of a compound that is named as a salt.

biological target: T1, Human vitronectin receptor (αvβ3) (Homo sapiens, UniProt P05106+P06756); assay: Vitronectin adhesion assay (solid phase receptor assay, competition with biotinylated vitronectin); type: binding; settings: read-out: AvB3 IC50
T1 construct: Human vitronectin receptor (αvβ3) was purified from human placenta; from tissue; host or cells: human placenta
Summary of the method: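 Purified human αvβ3 coated overnight at 4 °C in TBS with 1.0 mM Ca++, Mg++, Mn++, pH 7.4; compounds (top final 1.0×10^−4 M) competed with 1 nM biotinylated vitronectin for 2 h at room temperature. Bound ligand detected by HRP anti-biotin/OPD at A450; values normalized to no-competitor controls, four-parameter curve fit.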

IC50 [nM]	Compound
0.73	N=C(N)Nc1cccc(C(=O)NCC(=O)NC(CCS(=O)(=O)c2ccccc2C(=O)O)CC(=O)O)c1 (racemic) [60(C), (±)2-[3-[[2-[[[3-[(aminoiminomethyl)amino]phenyl]carbonyl]amino]acetyl]amino]-4-carboxybutyl]sulfonyl]benzoic acid, trifluoroacetate]
3.17	N=C(N)Nc1cccc(C(=O)NCC(=O)NC(CC(=O)O)c2ccccc2)c1 (racemic) [Example 4, (±)β-[[2-[[[3-[(aminoiminomethyl)amino]phenyl]carbonyl]amino]acetyl]amino]benzene-propanoic acid, trifluoroacetate salt]
0.69	N=C(N)Nc1cc(C(=O)NCC(=O)NC(CC(=O)O)c2cccnc2)c2ccccc2c1 (racemic) [Example 8, (±)β-[[2-[[[3-[(aminoiminomethyl)amino]naphthalen-1-yl]carbonyl]amino]acetyl]amino]pyridine-3-propanoic acid, bis(trifluoroacetate)salt]
0.92	O=C(O)CC(NC(=O)CNC(=O)c1cccc(NC2=NCCN2)c1)c1cccnc1 (racemic) [Example 10, (±)β-[[2-[[[3-[(4,5-dihydro-1H-imidazol-2-yl)amino]phenyl]carbonyl]amino]acetyl]amino]pyridine-3-propanoic acid, bis(trifluoroacetate)salt]
1.1	O=C(O)CC(NC(=O)CNC(=O)c1cccc(NC2=NCCCCC2)c1)c1cccnc1 (racemic) [Example 12, (±)β-[[2-[[[3-[(3,4,5,6-tetrahydro-2H-azepin-7-yl)amino]phenyl]carbonyl]amino]acetyl]amino]pyridine-3-propanoic acid, bis(trifluoroacetate)salt]
1.62	O=C(O)CC(NC(=O)CNC(=O)c1cccc(NC2=NCCCCC2)c1)c1ccc2c(c1)OCO2 (racemic) [Example 14, (±)β-[[2-[[[3-[(3,4,5,6-tetrahydro-2H-azepin-7-yl)amino]phenyl]carbonyl]amino]acetyl]amino]-1,3-benzodioxole-5-propanoic acid, TFA salt]
10.2	O=C(O)CC(NC(=O)CNC(=O)c1cccc(NC2=NCCCCC2)c1)c1ccccc1 (racemic) [Example 15, (±)β-[[2-[[[3-[(3,4,5,6-tetrahydro-2H-azepin-7-yl)amino]phenyl]carbonyl]amino]acetyl]amino]benzenepropanoic acid, trifluoroacetate salt]
0.91	N=C(NCc1ccccc1)Nc1cccc(C(=O)NCC(=O)NC(CC(=O)O)c2cccnc2)c1 (racemic) [Example 24, (±)β-[[2-[[[3-[[imino[(phenylmethyl)amino]methyl]amino]phenyl]carbonyl]amino]acetyl]amino]pyridine-3-propanoic acid, bis(trifluoroacetate)salt]
14.6	N=C(N)Nc1cccc(C(=O)NCC(=O)NC(CC(=O)O)c2cc(C(F)(F)F)cc(C(F)(F)F)c2)c1 (racemic) [Example 36, (±)β-[[2-[[[3-[(aminoiminomethyl)amino]phenyl]carbonyl]amino]acetyl]amino]-3,5-bis(trifluoromethyl)benzenepropanoic acid, trifluoroacetate salt]
0.86	O=C(O)CC(NC(=O)CNC(=O)c1cccc(NC(=O)NCc2ccccc2)c1)c1cccnc1 (racemic) [Example 47, (±)β-[[2-[[[3-[[[(phenylmethyl)amino]carbonyl]amino]phenyl]carbonyl]amino]acetyl]amino]pyridine-3-propanoic acid, hydrochloride salt]
3.62	N=C(N)Nc1cccc(C(=O)NCC(=O)NC(CC(=O)O)c2ccoc2)c1 (racemic) [Example 52, (±)β-[[2-[[[3-[(aminoiminomethyl)amino]phenyl]carbonyl]amino]acetyl]amino]furan-3-propanoic acid, trifluoroacetate salt]
3.12	N=C(N)Nc1cccc(C(=O)NCC(=O)NC(CC(=O)O)c2ccc3ccccc3c2)c1 (racemic) [Example 56, (±)β-[[2-[[[3-[(aminoiminomethyl)amino]phenyl]carbonyl]amino]acetyl]amino]naphthalene-2-propanoic acid, trifluoroacetate salt]
2.35	N=C(N)Nc1cccc(C(=O)NCC(=O)NC(CC(=O)O)c2ccsc2)c1 (racemic) [Example 59, (±)β-[[2-[[[3-[(aminoiminomethyl)amino]phenyl]carbonyl]amino]acetyl]amino]thiophene-3-propanoic acid, trifluoroacetate salt]
1.76	N=C(N)Nc1cccc(C(=O)NCC(=O)NC(CC(=O)O)c2cccs2)c1 (racemic) [Example 61, (±)β-[[2-[[[3-[(aminoiminomethyl)amino]phenyl]carbonyl]amino]acetyl]amino]thiophene-2-propanoic acid, trifluoroacetate salt]
1.44	Cc1ccc(SCCC(CC(=O)O)NC(=O)CNC(=O)c2cccc(NC(=N)N)c2)cc1 (racemic) [Example 66, (±)3-[[2-[[[3-[(aminoiminomethyl)amino]phenyl]carbonyl]amino]acetyl]amino]-5-[(4-methylphenyl)thio]pentanoic acid, trifluoroacetate salt]
2.05	Cc1ccc(S(=O)(=O)CCC(CC(=O)O)NC(=O)CNC(=O)c2cccc(NC(=N)N)c2)cc1 (racemic) [Example 67, (±)3-[[2-[[[3-[(aminoiminomethyl)amino]phenyl]carbonyl]amino]acetyl]amino]-5-[(4-methylphenyl)sulfonyl]pentanoic acid, trifluoroacetate salt]
3.39	Cc1ccc(C(=O)NCC(=O)NC(CC(=O)O)c2cccnc2)cc1NC(=N)N (racemic) [Example 83, (±)β-[[2-[[[3-[(aminoiminomethyl)amino]-4-methylphenyl]carbonyl]amino]acetyl]amino]pyridine-3-propanoic acid, bis(trifluoroacetate)salt]
8.44	Cc1ccc(O)c(C(CC(=O)O)NC(=O)CNC(=O)c2cccc(NC(=N)N)c2)c1 (racemic) [Example 88, (±)β-[[2-[[[3-[(aminoiminomethyl)amino]phenyl]carbonyl]amino]acetyl]amino]-2-hydroxy-5-methylbenzenepropanoic acid, trifluoroacetate salt]
2.66	O=C(O)CC(NC(=O)CNC(=O)c1cccc(NC2=NCCC2)c1)c1cccnc1 (stereo not drawn) [Example 17, β-[[2-[[[3-[(3,4-dihydro-2H-pyrrol-5-yl)amino]phenyl]carbonyl]amino]acetyl]amino]pyridine-3-propanoic acid, bis(trifluoroacetate)salt]
1.75	C#C[C@H](CC(=O)O)NC(=O)CNC(=O)c1cccc(NC2=NCCCCC2)c1 [Example 30, βS-[[2-[[[3-[(3,4,5,6-tetrahydro-2H-azepin-7-yl)amino]phenyl]carbonyl]amino]acetyl]amino]-4-pentynoic acid, trifluoroacetate salt]
28.3	C#C[C@@H](CC(=O)O)NC(=O)CNC(=O)c1cccc(NC(=N)N)c1 [Example 43, 3R-[[2-[[[(3-[(aminoiminomethyl)amino]phenyl]carbonyl]amino]acetyl]amino]-4-pentynoic acid, hydrochloride salt]
0.69	C#C[C@H](CC(=O)O)NC(=O)CNC(=O)c1cccc(NC(=N)N)c1 [Example 45, 3S-[[2-[[[3-[(aminoiminomethyl)amino]phenyl]carbonyl]amino]acetyl]amino]-4-pentynoic acid, hydrochloride salt]
5.34	NC(=O)Nc1cccc(C(=O)NCC(=O)NC(CC(=O)O)c2cccnc2)c1 (stereo not drawn) [Example 46, β-[[2-[[[3-(aminocarbonylamino)phenyl]carbonyl]amino]acetyl]amino]pyridine-3-propanoic acid, hydrochloride salt]
9.7	Cc1ccc(S(=O)(=O)NCC(CC(=O)O)NC(=O)CNC(=O)c2cccc(NC(=N)N)c2)cc1 (stereo not drawn) [Example 65, 3-[[2-[[[3-[(aminoiminomethyl)amino]phenyl]carbonyl]amino]acetyl]amino]-4-[[(4-methylphenyl)sulfonyl]amino]butanoic acid, trifluoroacetate salt]
20.4	N=C(N)Nc1cccc(C(=O)NCC(=O)N[C@@H](CC(=O)O)CS(=O)(=O)c2ccccc2C(=O)O)c1 [Example 71, 2-[[2S-[[2-[[[3-[(aminoiminomethyl)amino]phenyl]carbonyl]amino]acetyl]amino]-2-(carboxymethyl)ethyl]sulfonyl]benzoic acid, TFA salt]
0.38	N=C(N)Nc1cccc(C(=O)NCC(=O)NC(CC(=O)O)c2cnc3ccccc3c2)c1 (stereo not drawn) [Example 99, β-[[2-[[[3-[(aminoiminomethyl)amino]phenyl]carbonyl]amino]acetyl]amino]quinoline-3-propanoic acid, bis(trifluoroacetate)salt]
3.26	NC(=S)Nc1cccc(C(=O)NCC(=O)NC(CC(=O)O)c2cccnc2)c1 (stereo not drawn) [Example 114, β-[[2-[[[3-[(aminothioxomethyl)amino]phenyl]carbonyl]amino]acetyl]amino]pyridine-3-propanoic acid, trifluoroacetate salt]
